Assays:
Format in all cases: in vivo
Settings in all cases: evaluated after 13 days
Setaria faberi (SETFA) [1] = assay: Pre-emergence herbicidal glasshouse test (Table B1)
In short: (§1)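 Plants were grown in standard soil under controlled glasshouse conditions (24/16° C, 14 hours light, 65% humidity) and treated by spraying at 500 g/h unless otherwise indicated. Percentage damage was evaluated after 13 days and expressed on a five-point scale.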

[2] = test system: Abutilon theophrasti (ABUTH); assay: as above
In short: as §1

[3] = test system: Amaranthus retoflexus (AMARE); assay: as above
In short: as §1

[4] = test system: Echinochloa crus-galh (ECHCG); assay: as above
In short: as §1

[5] = test system: Ipomoea hederacea (IPOHE); assay: as above
In short: as §1

Setaria faberi (SETFA) [6] = assay: Post-emergence herbicidal glasshouse test (Table B1)
In short: as §1

[7] = test system: Abutilon theophrasti (ABUTH); assay: as above
In short: as §1

[8] = test system: Amaranthus retoflexus (AMARE); assay: as above
In short: as §1

[9] = test system: Echinochloa crus-galh (ECHCG); assay: as above
In short: as §1

[10] = test system: Ipomoea hederacea (IPOHE); assay: as above
In short: as §1

SMILES | PRE Application SETFA, percentage damage on five-point scale (Setaria faberi (SETFA) [1]; applied at 125 g/ha) | PRE Application ABUTH, percentage damage on five-point scale ([2]; applied at 125 g/ha) | PRE Application AMARE, percentage damage on five-point scale ([3]; applied at 125 g/ha) | PRE Application ECHCG, percentage damage on five-point scale ([4]; applied at 125 g/ha) | PRE Application IPOHE, percentage damage on five-point scale ([5]; applied at 125 g/ha) | POST Application SETFA, percentage damage on five-point scale (Setaria faberi (SETFA) [6]; applied at 125 g/ha) | POST Application ABUTH, percentage damage on five-point scale ([7]; applied at 125 g/ha) | POST Application AMARE, percentage damage on five-point scale ([8]; applied at 125 g/ha) | POST Application ECHCG, percentage damage on five-point scale ([9]; applied at 125 g/ha) | POST Application IPOHE, percentage damage on five-point scale ([10]; applied at 125 g/ha) | PRE Application SETFA, percentage damage on five-point scale (Setaria faberi (SETFA) [1]; applied at 500 g/h) | PRE Application ABUTH, percentage damage on five-point scale ([2]; applied at 500 g/h) | PRE Application AMARE, percentage damage on five-point scale ([3]; applied at 500 g/h) | PRE Application ECHCG, percentage damage on five-point scale ([4]; applied at 500 g/h) | PRE Application IPOHE, percentage damage on five-point scale ([5]; applied) | POST Application SETFA, percentage damage on five-point scale (Setaria faberi (SETFA) [6]; applied at 500 g/h) | POST Application ABUTH, percentage damage on five-point scale ([7]; applied at 500 g/h) | POST Application AMARE, percentage damage on five-point scale ([8]; applied at 500 g/h) | POST Application ECHCG, percentage damage on five-point scale ([9]; applied at 500 g/h) | POST Application IPOHE, percentage damage on five-point scale ([10]; applied at 500 g/h)
CCC(=O)Nc1c(OC(F)(F)F)ccc(C(=O)Nc2nnnn2C)c1C(F)(F)F [Compound 1.082] | 4 (4=60-79%) | 5 (5=80-100%) | 5 (5=80-100%) | 5 (5=80-100%) | 3 (3=40-59%) | 4 (4=60-79%) | 4 (4=60-79%) | 4 (4=60-79%) | 3 (3=40-59%) | 4 (4=60-79%) | – | – | – | – | – | – | – | – | – | –
Cn1nnnc1NC(=O)c1ccc(OC(F)F)c(NC(=O)c2ccc(C(F)(F)F)cn2)c1Cl [Compound 1.084] | 1 (1=0-19%) | 4 (4=60-79%) | 5 (5=80-100%) | 1 (1=0-19%) | 1 (1=0-19%) | 3 (3=40-59%) | 5 (5=80-100%) | 4 (4=60-79%) | 3 (3=40-59%) | 3 (3=40-59%) | – | – | – | – | – | – | – | – | – | –
CC(=O)Nc1c(OC(F)F)ccc(C(=O)Nc2nnnn2C)c1Cl [Compound 1.090] | 4 (4=60-79%) | 5 (5=80-100%) | 5 (5=80-100%) | 5 (5=80-100%) | 4 (4=60-79%) | 4 (4=60-79%) | 4 (4=60-79%) | 4 (4=60-79%) | 4 (4=60-79%) | 4 (4=60-79%) | – | – | – | – | – | – | – | – | – | –
Cc1cccnc1C(=O)Nc1c(OC(F)F)ccc(C(=O)Nc2nnnn2C)c1Cl [Compound 1.093] | 4 (4=60-79%) | 5 (5=80-100%) | 5 (5=80-100%) | 5 (5=80-100%) | 4 (4=60-79%) | 4 (4=60-79%) | 4 (4=60-79%) | 4 (4=60-79%) | 5 (5=80-100%) | 4 (4=60-79%) | – | – | – | – | – | – | – | – | – | –
Cc1c(C(=O)Nc2c(OC(F)F)ccc(C(=O)Nc3nnnn3C)c2Cl)nn(C)c1C [Compound 1.098] | 4 (4=60-79%) | 4 (4=60-79%) | 3 (3=40-59%) | 1 (1=0-19%) | 4 (4=60-79%) | 4 (4=60-79%) | 4 (4=60-79%) | 4 (4=60-79%) | 4 (4=60-79%) | 4 (4=60-79%) | – | – | – | – | – | – | – | – | – | –
Cn1nnnc1NC(=O)c1ccc(OC(F)F)c(NC(=O)c2ccc(F)cc2)c1Cl [Compound 1.099] | 1 (1=0-19%) | 4 (4=60-79%) | 5 (5=80-100%) | 1 (1=0-19%) | 3 (3=40-59%) | 3 (3=40-59%) | 4 (4=60-79%) | 4 (4=60-79%) | 4 (4=60-79%) | 4 (4=60-79%) | – | – | – | – | – | – | – | – | – | –
Cn1nnnc1NC(=O)c1ccc(OC(F)F)c(NC(=O)c2ncccc2F)c1Cl [Compound 1.100] | 3 (3=40-59%) | 5 (5=80-100%) | 5 (5=80-100%) | 1 (1=0-19%) | 2 (2=20-39%) | 4 (4=60-79%) | 4 (4=60-79%) | 4 (4=60-79%) | 4 (4=60-79%) | 4 (4=60-79%) | – | – | – | – | – | – | – | – | – | –
COc1ccc(C(=O)Nc2c(OC(F)F)ccc(C(=O)Nc3nnnn3C)c2Cl)cc1 [Compound 1.101] | 4 (4=60-79%) | 4 (4=60-79%) | 4 (4=60-79%) | 1 (1=0-19%) | 2 (2=20-39%) | 4 (4=60-79%) | 4 (4=60-79%) | 4 (4=60-79%) | 5 (5=80-100%) | 4 (4=60-79%) | – | – | – | – | – | – | – | – | – | –
CCn1nnnc1NC(=O)c1ccc(OC(F)(F)C(F)F)c(NC(=O)C2CC2)c1Cl [Compound 1.102] | – | – | – | – | – | – | – | – | – | – | 4 (4=60-79%) | 4 (4=60-79%) | 5 (5=80-100%) | 5 (5=80-100%) | 1 (1=0-19%) | 5 (5=80-100%) | 5 (5=80-100%) | 5 (5=80-100%) | 5 (5=80-100%) | 5 (5=80-100%)

Source: patent US20230219904A1 (SYNGENTA CROP PROTECTION AG, priority 2020, published 2023)
